Test results as given in PMC5400507, “The neuropeptide F/nitric oxide pathway is essential for shaping locomotor plasticity underlying locust phase transition” (eLife, 2017).

How the values were obtained:
Type in all cases: in vivo, Locusta migratoria
NOS = test: Total NOS activity in locust brains (NOS Kit); conditions: n = 4 samples
Method: (§1) An enzyme-linked immunosorbent assay (ELISA) kit (R and D Systems, Inc.) was used to detect the relative cAMP level in locust brains. For NO content determination, Total Nitric Oxide Assay Kit (Beyotime) was used. Because NO molecules are unstable, the total NO levels in all test groups were assessed by detecting the content of nitrate and nitrite. The NOS Kit (Nanjing Jiancheng Bioengineering Institute) was used to detect the total NOS activity in locust brains. Protein concentrations were measured using the BicinChoninic Acid (BCA) Protein Assay Kit (Thermo). All of these three measurements were performed according to the manufacturer’s instructions. Each measurement was from at least four biological replicates (12–16 locusts/replicate). Data were normalized to the protein concentration.

locusts = test: Behavioral arena assay (Pgreg, TDM, TDMV, attraction index); conditions: for attraction index: 2 hr after drug injection (L-NAME in G-phase, SNAP in S-phase) or 48 hr after NOS knockdown in G-phase; for behavioral phase state (Pgreg) / total distance moved (TDM) / total duration of movement (TDMV): n ≥ 23
Method: The concentrations of peptides and drugs that were used were determined according to described methods ([[…] and Yates, 2007]; [Van […] et al., 2013b]). […] Working solutions of different concentrations (0.05, 0.5 and 2.5 μg/μl) were injected into the hemolymph in the heads of fourth-instar locusts using a microinjector (2 μl/locust). The arena behavioral assay was conducted 1 hr, 2 hr, and 4 hr following injection. […] Working solution (100 μM) was microinjected into the heads of G-phase locusts (2 μl/locust). SNAP was dissolved with DMSO to prepare 100 mM stock solution. Working solution (200 μM) was microinjected into the heads of S-phase locusts (2 μl/locust). Locust behaviors were tested 2 hr after drug injection. The behavioral assay was performed in a rectangular Perspex arena (40 cm × 30 cm × 10 cm) containing three chambers. The left chamber (7.5 cm × 30 cm × 10 cm) contained 30 fourth-instar G-phase locusts as a stimulus group, and the right chamber was empty (7.5 cm × 30 cm × 10 cm). Locusts behaviors were recorded for 300 s by an EthoVision video tracking system and analyzed according to the binary logistic regression model constructed in our previous work ([Guo et al., 2011]). Details are as follow: […] AI = total duration in stimulus area - total duration in the opposite of stimulus area; this parameter represents the extent to which the tested animals are attracted by the stimulus group. TDMV (total duration of movement) and TDM (total distance moved) indicate the locomotor activity levels. Pgreg indicates the probability that a locust is considered gregarious. […] In the behavioral assay, 16-35 locusts were tested for each treatment according to the sample size reported in previous studies ([Ott et al., 2012]; [Ma et al., 2011]). […] Two hours later, SNAP (200 μM, 2 μl/locust) was injected into the heads of the experimental insects. Control insects were treated with an equal amount of saline. The injected locusts were then raised under the gregarious condition and subjected to behavioral analysis 2 hr after injection of SNAP. For S-phase locusts, […] or […] was microinjected into the brains of fourth-instar S-phase insects. […] The insects treated with dsGFP were used as a control.

NO = NO level in locust brains (Total Nitric Oxide Assay Kit); conditions: n = 4 samples
Method: as §1

[1] = S-phase locust brains, 2 hr after SNAP injection
[2] = G-phase locusts pre-injected with NPF1a or NPF2 peptide, SNAP 200 μM, 2 μl/locust 2 hr later, tested 2 hr after SNAP, n ≥ 24
[3] = S-phase locusts, 2 hr after injection of SNAP (200 μM, 2 μl/locust)
[4] = G-phase locust brains, 2 hr after L-NAME injection or 48 hr after NOS knockdown
[5] = G-phase locusts, 2 hr after injection of L-NAME (100 μM, 2 μl/locust) or 48 hr after NOS knockdown
[6] = S-phase locusts pre-injected with dsNPFR or dsNPYR, 2 hr after L-NAME injection, n ≥ 16

For S-nitroso-N-acetyl-penicillamine [SNAP], the NOS activity (NOS; [1]) was “without affecting NOS activity”, the attraction index (locusts) was “did not change the attraction index” and the “Pgreg, rescue” value (locusts; [2]) was “robust recovery”. For the same compound, the “total distance moved, rescue” value (locusts; [2]) was “robust recovery”, the “total duration of movement, rescue” value (locusts; [2]) was “robust recovery” and the “behavioral phase state (Pgreg)” value (locusts; [3]) was “pushed locust behavioral change from S-phase to G-phase state”. For the same compound, the “total distance moved (TDM)” value (locusts; [3]) was “enhanced”, the “total duration of movement (TDMV)” value (locusts; [3]) was “enhanced” and the NO levels (NO; [1]) was “increased”.

For `COC(=O)[C@@H](N)CCCNC(N)=N[N+](=O)[O-]` [L-NAME, N-Nitro-L-arginine Methyl Ester], the NOS activity (NOS; [4]) was “significantly reduced”, the attraction index (locusts) was “did not change the attraction index” and the “behavioral phase state (Pgreg)” value (locusts; [5]) was “S-phase-like behavior”. For the same compound, the “total distance moved (TDM)” value (locusts; [5]) was “strongly suppressed”, the “total duration of movement (TDMV)” value (locusts; [5]) was “strongly suppressed” and the “Pgreg increase induced by NPFR or NPYR knockdown” value (locusts; [6]) was “robustly abolished the increase”. For the same compound, the “total distance moved increase induced by NPFR or NPYR knockdown” value (locusts; [6]) was “robustly abolished the increase”, the “total duration of movement increase induced by NPFR or NPYR knockdown” value (locusts; [6]) was “robustly abolished the increase” and the NO levels (NO; [4]) was “significantly reduced”.
